Drawing on PMC6472029, “Steroids from the Deep-Sea-Derived Fungus Penicillium granulatum MCCC 3A00475 Induced Apoptosis via Retinoid X Receptor (RXR)-α Pathway” (Marine Drugs, 2019), this text covers Kd for two molecules.

The target of the experiment is T1, RXRα (Homo sapiens, UniProt P19793).
T1 construct: gene RXRA; RXRα-LBD (N-terminal His-tagged)
T1 sequence (P19793 223-462 limits assumed): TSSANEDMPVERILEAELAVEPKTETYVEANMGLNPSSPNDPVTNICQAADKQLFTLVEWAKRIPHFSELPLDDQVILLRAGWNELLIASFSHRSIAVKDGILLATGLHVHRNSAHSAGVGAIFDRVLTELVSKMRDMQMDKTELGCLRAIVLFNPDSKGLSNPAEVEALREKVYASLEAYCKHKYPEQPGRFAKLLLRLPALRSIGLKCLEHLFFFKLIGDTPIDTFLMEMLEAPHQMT
As to the kind of experiment: fluorescence quenching with purified RXRα-LBD. In kind it is binding.

In general, Kd refers to the concentration at which binding is half-saturated. A high value points to lower affinity. Take `CC(=O)O[C@H]1C[C@H]2[C@H]3[C@H]([C@@H](O)C[C@]2(C)[C@H]1[C@H](C)C=C[C@H](C)C(C)C)[C@@]1(C)CC[C@H](O)CC1=C[C@@H]3O` [compound 2, 16β-acetoxy-3β,7β,11β-trihydroxyergost-5,22-diene]: the Kd amounted to 13.8 µM.
Next, `CC(=O)O[C@H]1C[C@H]2[C@@H]3[C@@H](O)[C@@H](O)[C@H]4C[C@@H](O)CC[C@]4(C)[C@H]3[C@@H](O)C[C@]2(C)[C@H]1[C@H](C)/C=C/[C@H](C)C(C)C` [compound 6, penicisteroid A]: 12.9 µM.
